# What was measured:
# Type in all cases: cell-based, human
# [1] = tested on: PC-3 cells; assay: Antiproliferative activity, Alamar Blue assay, PC-3 cells; settings: Homo sapiens, PC-3, PC3 cells; read-out: PC3 antiproliferative activity pIC50 (converted)
# How it was run: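 Resazurin-based fluorescence (540 nm ex/590 nm em) measured after 4-day compound treatment plus 24 hrs dye incubation at 37° C. Cells plated at 4.5×10^3 cells/ml, adhered 24 hr first. pIC50 from probit-derived IC50 on % viable cells versus untreated, triplicate wells.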
# [2] = tested on: HCT116 cells; assay: Antiproliferative activity, Alamar Blue assay, HCT116 cells; settings: Homo sapiens, HCT-116, HCT116 cells; read-out: HCT116 antiproliferative activity pIC50 (converted)
# How it was run: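 Readout is resazurin fluorescence (ex 540, em 590 nm) after a 4 h dye incubation at 37 °C, following 4-day compound treatment of HCT116 cells plated 24 h earlier. Results expressed as % viable cells versus untreated; pIC50 derived from probit-fitted IC50.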
# [3] = tested on: HCT116 cells; assay: Mitotic arrest assay on HCT116 cells (phospho-histone H3 Ser10); settings: lowest active dose; for minimal effective concentration: Homo sapiens, HCT-116, HCT116 cells, read-out: Mitotic arrest HCT116 LAD (converted)
# From the text: Phosphorylation of histone H3 is tightly correlated with chromosome condensation during both mitosis and meiosis. The assay is a cellular immunosorbent assay wherein the sole antibody is labelled with a detectable conjugate. The phospho-histone H3 (ser10) antibody detects endogenous levels of histone H3 only when phosphorylated at serine 10. […] In parallel with antibody detection, the nuclei of the cells are stained with Hoechst 33342 for cell-counting. Cells are detected and analysed using the InCell Analyzer 1000 from GE Healthcare. Since both the antibody-detection as well as the Hoechst-staining are in the nucleus, the dual area object intensity algorithm is used for analysing the wells.
# All compounds tested were dissolved in DMSO and further dilutions were made in culture medium. Final DMSO concentrations never exceeded 0.1% (v/v).
# HCT116 cells (supplier: ATCC) (human colon carcinoma cell line) were cultivated in Mc Coy's 5 A medium (supplier: Gibco) supplemented with 10% foetal calf serum (FCS), 2 mM L-glutamine and gentamycin at 37° C. in a humidified incubator with 5% CO2.
# HCT116 cells were seeded at 20.000 cells per well in a 96 well plate (black/clear bottom, poly-D-lysine coated, supplier Greiner), cultured overnight to adhere to the bottom of the plate and treated with compound for 6 hours at 37° C. in a humidified incubator. After incubation, the medium was removed and cells were fixed using 100 μl/well formaldehyde (Accustain®, Formaline solution 10% neutral buffered, contains 4% formaldehyde w/v, supplier: Sigma) was added. After incubation for 15 minutes at room temperature, the formaldehyde was removed and cells were incubated with methanol (−20° C.) for 15 minutes at room temperature. After incubation, cells were washed once with phosphate-buffered saline (PBS —CaCl2, —MgCl2, suppier: Gibco)/0.05% Tween 20. The anti-phospho-histone H3 (Ser10) Alexa Fluor 488 antibody (supplier: Cell signalling) is used for detection of the cells inmitosis. The antibody was diluted 1/50 in 5% bovine serum albumins (BSA) and 50 μl/well was used for incubation overnight at room temperature in the dark.
# A 1/2000 dilution of Hoechtst 33342 (10 mg/ml, supplier: Invitrogen) was made and 100 μl/well was added for at least 30 minutes before acquiring images. The absorbance at dual wavelengths of 360/480 nm was measured using the InCell Analyzer 1000 from GE Healthcare and the results were then analyzed.
# For each experiment, controls (containing no drug) and a blank incubation (containing no cells or drugs) were run in parallel. Analysis was done in triplicate. Low cell count wells were invalidated. The blank value was subtracted from all control and sample values and divided by the standard deviation of the measurements. The compounds were considered active when the obtained value (sigma) was >5. Herein the effects of test compounds are expressed as the lowest dose giving a sigma value of >5 (LAD) (see table F-2).
structure (smiles),measurement,setting,value
CCc1cc2ccc(C(C)(C#N)Cc3ccc(OC)cc3)cc2[nH]c1=O (stereo not drawn) [Compound 119],IC50,[1],2.51 µM
same,IC50,[2],2 µM
same,minimal effective concentration,[3],1 µM
CCc1cc2ccc(C(C)(C#N)CCOc3ccc(Cl)cc3)cc2[nH]c1=O (stereo not drawn) [Compound 146],IC50,[1],0.501 µM
same,IC50,[2],0.398 µM
same,minimal effective concentration,[3],0.316 µM
CCc1cc2ccc(C(C)(C#N)Cc3cccc(C(=O)NC)c3)cc2[nH]c1=O (stereo not drawn) [Compound 13],IC50,[1],7.94 µM
same,IC50,[2],7.94 µM
same,minimal effective concentration,[3],1 µM
"CCc1cc2ccc([C@@](C)(C#N)CCOc3ccccc3)cc2[nH]c1=O (single isomer, unassigned) [Compound 150]",IC50,[1],1.58 µM
same,IC50,[2],0.794 µM
same,minimal effective concentration,[3],0.316 µM
CCc1cc2ccc(C(C)(C#N)CCOc3ccc4oc(C)c(C)c4c3)cc2[nH]c1=O (stereo not drawn) [Compound 162],IC50,[1],> 10 µM
same,IC50,[2],> 10 µM
same,minimal effective concentration,[3],3.16 µM
CCc1cc2ccc(C(C)(C#N)CCOc3ccccc3C(C)=O)cc2[nH]c1=O (stereo not drawn) [Compound 159],IC50,[1],> 10 µM
same,IC50,[2],> 10 µM
same,minimal effective concentration,[3],3.16 µM
CCc1cc2ccc(C(C)(C#N)CCOc3cccc4c3OCCO4)cc2[nH]c1=O (stereo not drawn) [Compound 163],IC50,[1],1 µM
same,IC50,[2],0.398 µM
same,minimal effective concentration,[3],1 µM
CCc1cc2ccc(C(C)(C#N)CCOc3ccc(C#N)cc3)cc2[nH]c1=O (stereo not drawn) [Compound 161],IC50,[1],0.501 µM
same,IC50,[2],0.501 µM
same,minimal effective concentration,[3],0.1 µM
CCc1cc2ccc(C(C)(C#N)Cc3cccc(-c4nc(C)no4)c3)cc2[nH]c1=O (stereo not drawn) [Compound 11],IC50,[1],1.58 µM
same,IC50,[2],1.58 µM
same,minimal effective concentration,[3],0.316 µM
CCc1cc2ccc(C(C)(C#N)Cc3ccc4c(c3)nnn4C)cc2[nH]c1=O (stereo not drawn) [Compound 123],IC50,[1],> 10 µM
same,IC50,[2],3.98 µM
same,minimal effective concentration,[3],3.16 µM
CCc1cc2ccc(C(C)(C#N)Cc3ccc(C(F)(F)F)cc3)cc2[nH]c1=O (stereo not drawn) [Compound 108],IC50,[1],> 10 µM
same,IC50,[2],6.31 µM
same,minimal effective concentration,[3],3.16 µM
CCc1cc2ccc(C(C)(C#N)Cc3c(Cl)cccc3Br)cc2[nH]c1=O (stereo not drawn) [Compound 136],IC50,[1],1 µM
same,IC50,[2],0.316 µM
same,minimal effective concentration,[3],0.316 µM
CCc1cc2ccc(C(C)(C#N)Cc3cccc(CCC#N)c3)cc2[nH]c1=O (stereo not drawn) [Compound 165],IC50,[1],1 µM
same,IC50,[2],0.631 µM
same,Mitotic arrest HCT116 LAD,"[3]; HCT116 cells, the values are: pLAD (−log M lowest active dose)",6.5
CCc1cc2ccc(C(C)(C#N)Cc3cccc(NS(C)(=O)=O)c3)cc2[nH]c1=O (stereo not drawn) [Compound 14],IC50,[1],> 10 µM
same,IC50,[2],> 10 µM
same,minimal effective concentration,[3],10 µM
CCOc1ccccc1OCCC(C)(C#N)c1ccc2cc(CC)c(=O)[nH]c2c1 (stereo not drawn) [Compound 142],IC50,[1],0.316 µM
same,IC50,[2],0.316 µM
same,minimal effective concentration,[3],0.316 µM
CCc1cc2ccc(C(C)(C#N)Cc3ccc(OC(F)(F)F)cc3)cc2[nH]c1=O (stereo not drawn) [Compound 114],IC50,[1],1.58 µM
same,IC50,[2],1.58 µM
same,minimal effective concentration,[3],1 µM
CCc1cc2ccc(C(C)(C#N)CCOc3cccc(C)c3)cc2[nH]c1=O (stereo not drawn) [Compound 143],IC50,[1],0.794 µM
same,IC50,[2],0.501 µM
same,minimal effective concentration,[3],0.316 µM
CCc1cc2ccc(C(C)(C#N)Cc3ccc(C)cc3)cc2[nH]c1=O (stereo not drawn) [Compound 117],IC50,[1],2 µM
same,IC50,[2],2.51 µM
same,minimal effective concentration,[3],1 µM
CCc1cc2ccc(C(C)(C#N)Cc3ccc4c(c3)OCCO4)cc2[nH]c1=O (stereo not drawn) [Compound 124],IC50,[1],2 µM
same,IC50,[2],0.501 µM
same,minimal effective concentration,[3],0.316 µM
CCc1cc2ccc(C(C)(C#N)CCOc3ccc(SC)cc3)cc2[nH]c1=O (stereo not drawn) [Compound 155],IC50,[1],1.58 µM
same,IC50,[2],6.31 µM
same,minimal effective concentration,[3],1 µM
CCc1cc2ccc(C(C)(C#N)CCOc3ccc(Cl)cc3Cl)cc2[nH]c1=O (stereo not drawn) [Compound 154],IC50,[1],0.398 µM
same,IC50,[2],0.398 µM
same,minimal effective concentration,[3],0.316 µM

# Source: patent US8778966B2, “Quinolinone derivatives as PARP and tank inhibitors” (Janssen Pharmaceutica, NV, priority 2007, dated 2014)
